In ChEMBL document CHEMBL5032520, “Low-Valent Calix[4]arene Glycoconjugates Based on Hydroxamic Acid Bearing Linkers as Potent Inhibitors in a Model of Ebola Virus Cis-Infection and HCMV-gB-Recombinant Glycoprotein Interaction with MDDC Cells by Blocking DC-SIGN” (J Med Chem, 2021):
pIC50: −log10 of the molar value.

Experiments:
[1] = test system: Human betaherpesvirus 5; test: Antiviral activity against HCMV infected in U-937 cells expressed in DC-SIGN using flow cytometry; format: functional, organism-based; settings: Human betaherpesvirus 5, U-937
[2] = test system: Human betaherpesvirus 5; test: Potency index, ratio of Mannan IC50 to test compound IC50 for antiviral activity against HCMV infected in U-937 cells expressed in DC-SIGN using flow cytometry; format: functional

SMILES	IC50 [1]	Ratio IC50 [2]	pIC50 [1]
C[C@@H]1O[C@@H](OCc2cn(CCCCCC(=O)N(O)Cc3cn(CCCOc4c5cc(C(C)(C)C)cc4Cc4cc(C(C)(C)C)cc(c4OCCCn4cc(CN(O)C(=O)CCCCCn6cc(CO[C@@H]7O[C@@H](C)[C@@H](O)[C@@H](O)[C@@H]7O)nn6)nn4)Cc4cc(C(C)(C)C)cc(c4OCCCn4cc(CN(O)C(=O)CCCCCn6cc(CO[C@@H]7O[C@@H](C)[C@@H](O)[C@@H](O)[C@@H]7O)nn6)nn4)Cc4cc(C(C)(C)C)cc(c4OCCCn4cc(CN(O)C(=O)CCCCCn6cc(CO[C@@H]7O[C@@H](C)[C@@H](O)[C@@H](O)[C@@H]7O)nn6)nn4)C5)nn3)nn2)[C@@H](O)[C@H](O)[C@@H]1O	0.5 µg/mL	31	–
COC(=O)CNC(=O)CN(Cc1cn(CCCOc2c3cc(C(C)(C)C)cc2Cc2cc(C(C)(C)C)cc(c2OCCCn2cc(CN(CC(=O)NCC(=O)OC)C(=O)CCCCCn4cc(CO[C@@H]5O[C@@H](C)[C@@H](O)[C@@H](O)[C@@H]5O)nn4)nn2)Cc2cc(C(C)(C)C)cc(c2OCCCn2cc(CN(CC(=O)NCC(=O)OC)C(=O)CCCCCn4cc(CO[C@@H]5O[C@@H](C)[C@@H](O)[C@@H](O)[C@@H]5O)nn4)nn2)Cc2cc(C(C)(C)C)cc(c2OCCCn2cc(CN(CC(=O)NCC(=O)OC)C(=O)CCCCCn4cc(CO[C@@H]5O[C@@H](C)[C@@H](O)[C@@H](O)[C@@H]5O)nn4)nn2)C3)nn1)C(=O)CCCCCn1cc(CO[C@@H]2O[C@@H](C)[C@@H](O)[C@@H](O)[C@@H]2O)nn1	2.4 µg/mL	6.45	–
OC[C@H]1O[C@@H](O[C@H]2[C@H](O)[C@@H](O)[C@H](O[C@H]3[C@H](O)[C@H](O)[C@H](O[C@@H]4[C@H](O)[C@H](O)[C@H](O)O[C@@H]4CO)O[C@@H]3CO)O[C@@H]2CO)[C@@H](O)[C@@H](O)[C@@H]1O	–	–	7.81
COC(=O)CNC(=O)CN(Cc1cn(CCCOc2c3cc(C(C)(C)C)cc2Sc2cc(C(C)(C)C)cc(c2OCCCn2cc(CN(CC(=O)NCC(=O)OC)C(=O)CCCCCn4cc(CO[C@@H]5O[C@@H](C)[C@@H](O)[C@@H](O)[C@@H]5O)nn4)nn2)Sc2cc(C(C)(C)C)cc(c2OCCCn2cc(CN(CC(=O)NCC(=O)OC)C(=O)CCCCCn4cc(CO[C@@H]5O[C@@H](C)[C@@H](O)[C@@H](O)[C@@H]5O)nn4)nn2)Sc2cc(C(C)(C)C)cc(c2OCCCn2cc(CN(CC(=O)NCC(=O)OC)C(=O)CCCCCn4cc(CO[C@@H]5O[C@@H](C)[C@@H](O)[C@@H](O)[C@@H]5O)nn4)nn2)S3)nn1)C(=O)CCCCCn1cc(CO[C@@H]2O[C@@H](C)[C@@H](O)[C@@H](O)[C@@H]2O)nn1	3.15 µg/mL	4.91	–
CC(C)(C)c1cc2c(OCCCn3cc(CN(O)C(=O)CCCCCn4cc(CO[C@H]5O[C@H](CO)[C@@H](O)[C@H](O)[C@@H]5O)nn4)nn3)c(c1)Cc1cc(C(C)(C)C)cc(c1OCCCn1cc(CN(O)C(=O)CCCCCn3cc(CO[C@H]4O[C@H](CO)[C@@H](O)[C@H](O)[C@@H]4O)nn3)nn1)Cc1cc(C(C)(C)C)cc(c1OCCCn1cc(CN(O)C(=O)CCCCCn3cc(CO[C@H]4O[C@H](CO)[C@@H](O)[C@H](O)[C@@H]4O)nn3)nn1)Cc1cc(C(C)(C)C)cc(c1OCCCn1cc(CN(O)C(=O)CCCCCn3cc(CO[C@H]4O[C@H](CO)[C@@H](O)[C@H](O)[C@@H]4O)nn3)nn1)C2	0.45 µg/mL	34	–
